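These data come from cells grown in 96-well plates and exposed to compound for 48 hours at five concentrations. At the GI50, growth is halved. At the TGI there is no net growth.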

What all share (test): NCI tumour cell line growth inhibition, 48 h
Test [1] relates to RXF 393 renal.
Test [2] relates to EKVX NSCLC.
In test [3] the test system is KM12 colon.
The test system of test [4] is SW-620 colon.
For test [5], the system named is SK-MEL-5 melanoma.
Test [6] relates to PC-3 prostate.
Test [7] relates to SN12C renal.
Test [8] relates to SF-539 CNS.
Test [9] concerns OVCAR-4 ovarian.

On to `N#Cc1c(-c2ccccc2)cc(-c2ccc(Nc3nc(Nc4ccc(Cl)cc4)nc(Nc4ccc(Cl)cc4)n3)cc2)nc1N`, for which the GI50 is 1.78 µM in test [1]; 16.6 µM in [2]; 2.91 µM in test [3]; 1.91 µM in [4]; 1.42 µM in [5]; 1.89 µM in [6]. In addition, the values for the GI50 in test [7], in test [8] and in [9] were 3.37 µM, 1.69 µM and 4.06 µM, respectively. The TGI in test [1] is 4.72 µM; in test [2] it was 48.8 µM; in test [3], 11.4 µM; in [4], 4.82 µM; in test [5], 2.78 µM; in test [6] it was 6.76 µM. The TGI was > 100 µM in [7], 3.24 µM in test [8] and > 100 µM in test [9].
Take `Cc1ccc(S(=O)(=O)NC(=O)NC23CC4CC(CC(F)(C4)C2)C3)cc1`: the TGI in test [1], in test [2], in test [3], in test [4], in [5] and in test [8] was > 100 µM each time.
Consider `COCC(=O)CP(=O)(OC)OC`, for which the TGI in test [1], in test [2], in [3], in test [4], in test [5] and in test [7] was > 100 µM in each case. Besides, the TGI in test [8] and in [9] was > 100 µM each time.
On to `O=c1cc2ccccc2nn1Cc1ccccc1Cl`, for which the TGI in [2], in test [3], in test [4], in test [5], in test [7] and in test [8] was > 100 µM in each case. Also, the TGI in [9] is > 100 µM.
As to `OCC1OC(n2ccc3c(NO)ncnc32)C(O)C1O` (stereo not given), the GI50 in test [1] is 0.163 µM; in test [2] it was 0.241 µM; in test [3], 0.234 µM; in test [4], 0.0895 µM; in test [5] it was 0.171 µM; in [6], 0.239 µM. For the same compound, the GI50 was 0.212 µM in test [7], 0.288 µM in [8] and 0.124 µM in test [9]. The TGI was 1.14 µM in test [1]; 0.994 µM in [2]; 1.12 µM in test [3]; 3.23 µM in test [4]; 0.325 µM in [5]; 1.14 µM in test [6]. Besides, the TGI in test [7] was determined as 1.61 µM; in test [8], 1.29 µM; in test [9], 1.3 µM.
As for `Cn1c(=O)nc2n(-c3cccc(F)c3)c3ccccc3nc-2c1=O`, the TGI is > 100 µM in test [1]; 32.5 µM in [2]; > 100 µM in test [3]; 26.4 µM in [4]; 27.3 µM in [5]; 73.9 µM in [7]. Also, the figures for the TGI in test [8] and in [9] were 66 µM and 27.8 µM, respectively.
Regarding `CC(=O)OC1CC2C(C)(C)C(=O)C=C[C@]2(C)C2CCC3(C)C(c4ccoc4)C(=O)[C@H]4O[C@]43[C@]12C` (stereo not given in full), the TGI in [1] is 47.5 µM; in [2], 89.2 µM; in [4] it was 59.2 µM; in [5], 32.9 µM; in test [7] it was 66.1 µM; in [8] it was 39.9 µM. For the same compound, the TGI in test [9] is > 100 µM.
On to `NNc1nc2ccccc2c(=O)n1NC(=O)C(=O)Nc1cccc(C(F)(F)F)c1`, for which the TGI in test [1], in test [2], in test [3], in test [4], in test [5] and in test [6] was > 100 µM throughout. The TGI in [7], in test [8] and in test [9] was > 100 µM throughout.
Turning to `O=C(Nc1ccc(Cl)cc1)c1ccc(NC2=C(Cl)C(=O)N(Cc3ccccc3)C2=O)cc1`, the GI50 is 18.3 µM in test [1]; 26.7 µM in test [2]; 21.1 µM in [3]; 6.36 µM in test [4]; 31.1 µM in [5]; 11.4 µM in test [6]. Besides, the GI50 in test [7] is 7.67 µM; in [8] it was 17.5 µM; in test [9], 18.3 µM. Besides, the TGI was 44.9 µM in [1]; 89.5 µM in test [2]; 56.7 µM in test [3]; > 100 µM in [4]; 99.3 µM in test [5]; 27.1 µM in [6]. The TGI in test [7] came out at 25.1 µM; in [8], 41.3 µM; in [9], 43.4 µM.
As for `CN(C)N1C(=O)c2ccccc2NC1c1ccccc1` (stereo not given), the TGI in test [2], in test [3], in test [4], in test [5], in [6] and in [7] was > 100 µM throughout. Besides, the TGI in test [8] and in test [9] was > 100 µM each time.
For `CCOC(=O)c1[nH]c(-c2ccc(Cl)cc2)cc1-c1cccnc1`, the GI50 in test [1] was 1.27 µM; in test [2], 1.35 µM; in test [3] it was 0.595 µM; in test [4], 2.87 µM; in test [5], 0.401 µM; in test [6], 0.325 µM. The GI50 in test [7] was 1.44 µM; in test [8] it was 0.423 µM; in [9], 10.2 µM. For the same compound, the TGI in test [1] is 7.23 µM; in test [2], > 100 µM; in test [3] it was > 100 µM; in [4] it was > 100 µM; in test [5], > 100 µM; in test [6] it was > 100 µM. In addition, the results for the TGI in [7], in [8] and in test [9] were > 100 µM, 7.14 µM and > 100 µM, respectively.
With `C1CSCCCSCCSCCCSC1`, the TGI in test [1], in [2], in [4], in test [5], in test [6] and in test [7] was > 100 µM each time. In addition, the TGI in test [8] and in test [9] was > 100 µM in each case.
On to `NC(=O)N/N=C/C(/C=N/NC(N)=O)[N+](=O)[O-]`, for which the TGI in test [1], in test [2], in [3], in test [4], in test [7] and in [8] was > 100 µM throughout. The TGI in test [9] was > 100 µM.

For the origin of these results see PubChem BioAssay (NCI).
